System: MV-4-11 cells
Assay: Gene expression microarray analysis (Affymetrix PrimeView) and GSEA
Assay type: cell-based, human
Parameters: RFU PODN (11730768_x_at) / Fold change /veh PODN (11730768_x_at) / RFU LINC00158 (11744669_a_at) / Fold change /veh LINC00158 (11744669_a_at) / RFU DUSP10 (11751237_a_at) / Fold change /veh DUSP10 (11751237_a_at) / RFU ID3 (11757404_x_at) / Fold change /veh ID3 (11757404_x_at) / RFU PLEKHG5 (11737974_s_at) / Fold change /veh PLEKHG5 (11737974_s_at) / RFU LRRC4B (11730491_at) / Fold change /veh LRRC4B (11730491_at) / RFU GIMAP4 (11747438_a_at) / Fold change /veh GIMAP4 (11747438_a_at) / RFU KRT8 (11758183_x_at) / Fold change /veh KRT8 (11758183_x_at) / RFU CNN1 (11734310_a_at) / Fold change /veh CNN1 (11734310_a_at) / RFU VPS37D (11726825_at) / Fold change /veh VPS37D (11726825_at) / RFU C10orf10 (11716522_x_at) / Fold change /veh C10orf10 (11716522_x_at) / RFU KIR2DL2 /// KIR2DL4 /// KIR2DL5A /// KIR2DL5B /// KIR2DS1 /// KIR2DS2 /// KIR2DS3 /// KIR2DS4 /// KIR3DL3 /// KIR3DL3 /// KIR3DS1 (11738374_at) / Fold change /veh KIR2DL2 /// KIR2DL4 /// KIR2DL5A /// KIR2DL5B /// KIR2DS1 /// KIR2DS2 /// KIR2DS3 /// KIR2DS4 /// KIR3DL3 /// KIR3DL3 /// KIR3DS1 (11738374_at) / RFU C1QL1 (11718748_at) / Fold change /veh C1QL1 (11718748_at) / RFU TMPRSS4 (11747572_a_at) / Fold change /veh TMPRSS4 (11747572_a_at) / RFU HAMP (11756126_x_at) / Fold change /veh HAMP (11756126_x_at) / RFU RNFT2 (11725882_a_at) / Fold change /veh RNFT2 (11725882_a_at) / RFU NR4A2 (11747474_a_at) / Fold change /veh NR4A2 (11747474_a_at) / RFU ABCC12 (11746883_a_at) / Fold change /veh ABCC12 (11746883_a_at) / RFU TMEM136 (11760407_x_at) / Fold change /veh TMEM136 (11760407_x_at) / RFU CLDN22 /// WWC2 (11732394_at) / Fold change /veh CLDN22 /// WWC2 (11732394_at) / RFU HLA-DPB1 (11760878_x_at) / Fold change /veh HLA-DPB1 (11760878_x_at) / RFU SPINT1 (11716480_a_at) / Fold change /veh SPINT1 (11716480_a_at) / RFU GAP43 (11754022_s_at) / Fold change /veh GAP43 (11754022_s_at) / RFU A4GNT (11735810_at) / Fold change /veh A4GNT (11735810_at) / RFU PRB3 (11715151_x_at) / Fold change /veh PRB3 (11715151_x_at) / RFU TUBB4B (11761932_at) / Fold change /veh TUBB4B (11761932_at) / RFU CAPN14 (11732068_a_at) / Fold change /veh CAPN14 (11732068_a_at) / RFU TMCC2 (11721928_a_at) / Fold change /veh TMCC2 (11721928_a_at) / RFU IRGQ (11745062_a_at) / Fold change /veh IRGQ (11745062_a_at) / RFU FAM174B (11720279_a_at) / Fold change /veh FAM174B (11720279_a_at) / RFU TMPRSS4 (11748680_a_at) / Fold change /veh TMPRSS4 (11748680_a_at) / RFU FAM212B (11763350_a_at) / Fold change /veh FAM212B (11763350_a_at) / RFU PLEKHG5 (11743358_a_at) / Fold change /veh PLEKHG5 (11743358_a_at) / RFU ZSCAN30 (11745921_a_at) / Fold change /veh ZSCAN30 (11745921_a_at) / RFU CMKLR1 (11741424_a_at) / Fold change /veh CMKLR1 (11741424_a_at) / RFU LOC101060620 /// MAPK8IP1 (11723275_at) / Fold change /veh LOC101060620 /// MAPK8IP1 (11723275_at) / RFU SPTSSB (11747773_x_at) / Fold change /veh SPTSSB (11747773_x_at) / RFU PRSS12 (11739890_at) / Fold change /veh PRSS12 (11739890_at) / RFU BIN1 (11741810_x_at) / Fold change /veh BIN1 (11741810_x_at) / RFU WNT11 (11732464_a_at) / Fold change /veh WNT11 (11732464_a_at) / RFU C10orf10 (11716521_a_at) / Fold change /veh C10orf10 (11716521_a_at) / RFU C5orf56 (11738089_at) / Fold change /veh C5orf56 (11738089_at) / RFU CYB561 (11721691_x_at) / Fold change /veh CYB561 (11721691_x_at) / RFU ANKRD19P (11752326_a_at) / Fold change /veh ANKRD19P (11752326_a_at) / RFU OR2T12 /// OR2T33 /// OR2T8 (11738714_s_at) / Fold change /veh OR2T12 /// OR2T33 /// OR2T8 (11738714_s_at) / RFU VCAN (11748164_a_at) / Fold change /veh VCAN (11748164_a_at) / RFU JSRP1 (11732532_at) / Fold change /veh JSRP1 (11732532_at) / RFU KRTAP10-11 (11738290_x_at) / Fold change /veh KRTAP10-11 (11738290_x_at) / RFU MYO3A (11730013_a_at) / Fold change /veh MYO3A (11730013_a_at) / RFU EBF3 (11725865_a_at) / Fold change /veh EBF3 (11725865_a_at) / RFU CAMK2N1 (11719241_x_at) / Fold change /veh CAMK2N1 (11719241_x_at) / RFU C5orf56 (11738088_a_at) / Fold change /veh C5orf56 (11738088_a_at) / RFU OLFML3 (11715873_a_at) / Fold change /veh OLFML3 (11715873_a_at) / RFU LOC100653217 /// NTM (11731650_a_at) / Fold change /veh LOC100653217 /// NTM (11731650_a_at) / RFU MAPK11 (11762145_a_at) / Fold change /veh MAPK11 (11762145_a_at) / RFU FIZ1 (11724087_x_at) / Fold change /veh FIZ1 (11724087_x_at) / RFU OASL (11726364_x_at) / Fold change /veh OASL (11726364_x_at) / RFU SOX15 (11748057_x_at) / Fold change /veh SOX15 (11748057_x_at) / RFU CD79A (11719716_a_at) / Fold change /veh CD79A (11719716_a_at) / RFU HIST1H1D (11736915_at) / Fold change /veh HIST1H1D (11736915_at) / RFU CASKIN2 (11723855_a_at) / Fold change /veh CASKIN2 (11723855_a_at) / RFU LOC730098 (11760151_x_at) / Fold change /veh LOC730098 (11760151_x_at) / RFU OR4N2 (11742367_at) / Fold change /veh OR4N2 (11742367_at) / RFU PRRT2 (11749266_a_at) / Fold change /veh PRRT2 (11749266_a_at) / RFU SNX32 (11753110_a_at) / Fold change /veh SNX32 (11753110_a_at) / RFU CDHR5 (11726645_a_at) / Fold change /veh CDHR5 (11726645_a_at) / RFU RCAN1 (11760418_a_at) / Fold change /veh RCAN1 (11760418_a_at) / RFU FAM167A (11723789_a_at) / Fold change /veh FAM167A (11723789_a_at) / RFU FAM26E (11764081_at) / Fold change /veh FAM26E (11764081_at) / RFU ISYNA1 (11749810_s_at) / Fold change /veh ISYNA1 (11749810_s_at) / RFU ACY1 (11761880_at) / Fold change /veh ACY1 (11761880_at) / RFU 11764098_at / Fold change /veh 11764098_at / RFU SAMD14 (11745864_x_at) / Fold change /veh SAMD14 (11745864_x_at) / RFU NPB (11741838_a_at) / Fold change /veh NPB (11741838_a_at) / RFU TMPRSS6 (11731388_a_at) / Fold change /veh TMPRSS6 (11731388_a_at) / RFU KRTAP10-2 (11738614_at) / Fold change /veh KRTAP10-2 (11738614_at) / RFU ARHGAP8 /// PRR5-ARHGAP8 (11727945_x_at) / Fold change /veh ARHGAP8 /// PRR5-ARHGAP8 (11727945_x_at) / RFU KRTAP5-7 /// NADSYN1 (11734609_at) / Fold change /veh KRTAP5-7 /// NADSYN1 (11734609_at) / RFU RASL12 (11751679_a_at) / Fold change /veh RASL12 (11751679_a_at) / RFU CDKN2B (11736163_a_at) / Fold change /veh CDKN2B (11736163_a_at) / RFU PRF1 (11729649_at) / Fold change /veh PRF1 (11729649_at) / RFU, ZNF638 /// ZNF638-IT1 / Fold change vs veh, ZNF638 /// ZNF638-IT1 / RFU, PANK3 / Fold change vs veh, PANK3 / RFU, SH3YL1 / Fold change vs veh, SH3YL1 / RFU, ZEB2 / Fold change vs veh, ZEB2 / RFU, NRIP1 / Fold change vs veh, NRIP1 / RFU, PTTG1IP / Fold change vs veh, PTTG1IP / RFU, CAPN2 / Fold change vs veh, CAPN2 / RFU, MED14 / Fold change vs veh, MED14 / RFU, SNORA58 / Fold change vs veh, SNORA58 / RFU, C1orf63 / Fold change vs veh, C1orf63 / RFU, LRRFIP1 / Fold change vs veh, LRRFIP1 / RFU, NDUFAF7 / Fold change vs veh, NDUFAF7 / RFU, SLC12A2 / Fold change vs veh, SLC12A2 / RFU, IBTK / Fold change vs veh, IBTK / RFU, ESF1 / Fold change vs veh, ESF1 / Fold change vs veh, TMEM50B / RFU, TAOK1 / Fold change vs veh, TAOK1 / RFU, ACBD3 / Fold change vs veh, ACBD3 / RFU, TMA16 / Fold change vs veh, TMA16 / RFU, RWDD3 / Fold change vs veh, RWDD3 / RFU, BCAT1 / Fold change vs veh, BCAT1 / RFU, EDEM3 / Fold change vs veh, EDEM3 / RFU, TMEM33 / Fold change vs veh, TMEM33 / RFU, WDR75 / Fold change vs veh, WDR75 / RFU, AHCTF1 / Fold change vs veh, AHCTF1 / RFU, TFRC / Fold change vs veh, TFRC / RFU, ZDHHC17 / Fold change vs veh, ZDHHC17 / RFU, NOM1 / Fold change vs veh, NOM1 / RFU, ARL8B / Fold change vs veh, ARL8B / RFU, ZBTB11 / Fold change vs veh, ZBTB11 / RFU, TAMM41 / Fold change vs veh, TAMM41 / RFU, KIAA1704 /// LOC100996395 / Fold change vs veh, KIAA1704 /// LOC100996395 / RFU, ING1 / Fold change vs veh, ING1 / RFU, TRMT61B / Fold change vs veh, TRMT61B / RFU, FUBP3 / Fold change vs veh, FUBP3 / RFU, TP53 / Fold change vs veh, TP53 / RFU, TNKS2 / Fold change vs veh, TNKS2 / RFU, ZFP14 / Fold change vs veh, ZFP14 / RFU, ACTR2 / Fold change vs veh, ACTR2 / RFU, PPP3R1 / Fold change vs veh, PPP3R1 / RFU, PIK3R1 / Fold change vs veh, PIK3R1 / RFU, HNRNPA1 / Fold change vs veh, HNRNPA1 / RFU, RNF170 / Fold change vs veh, RNF170 / RFU, ZNF28 / Fold change vs veh, ZNF28 / RFU, RNGTT / Fold change vs veh, RNGTT / RFU, OGT / Fold change vs veh, OGT / RFU, BRD1 / Fold change vs veh, BRD1 / RFU, MARS / Fold change vs veh, MARS / RFU, ZNF655 / Fold change vs veh, ZNF655 / RFU, FAHD1 / Fold change vs veh, FAHD1 / RFU, BDP1 / Fold change vs veh, BDP1 / RFU, LRRCC1 / Fold change vs veh, LRRCC1 / RFU, ARID1A / Fold change vs veh, ARID1A / RFU, ZNF146 / Fold change vs veh, ZNF146 / RFU, ZNF330 / Fold change vs veh, ZNF330 / RFU, GPN3 / Fold change vs veh, GPN3 / RFU, C9orf123 / Fold change vs veh, C9orf123 / RFU, N4BP2L2 / Fold change vs veh, N4BP2L2 / RFU, ARFIP1 / Fold change vs veh, ARFIP1 / RFU, FAM179B / Fold change vs veh, FAM179B / RFU, BCL10 / Fold change vs veh, BCL10 / RFU, UHRF1BP1L / Fold change vs veh, UHRF1BP1L / RFU, BET1 / Fold change vs veh, BET1 / RFU, CNOT2 / Fold change vs veh, CNOT2 / RFU, ZNF268 / Fold change vs veh, ZNF268 / Fold change vs veh, ZNF507 / RFU, DGCR2 / Fold change vs veh, DGCR2 / RFU, WDSUB1 / Fold change vs veh, WDSUB1 / Fold change vs veh, HSP90B1 /// MIR3652 / RFU, ADSS / Fold change vs veh, ADSS / RFU, GK / Fold change vs veh, GK / RFU, ZNF148 / Fold change vs veh, ZNF148 / RFU, TAF9 / Fold change vs veh, TAF9 / RFU, SLC1A5 / Fold change vs veh, SLC1A5 / RFU, SLMO2 / Fold change vs veh, SLMO2 / RFU, ABCC4 / Fold change vs veh, ABCC4 / RFU, LOC101060439 /// RAP1B / Fold change vs veh, LOC101060439 /// RAP1B / RFU, RFX7 / Fold change vs veh, RFX7 / RFU, GTPBP10 / Fold change vs veh, GTPBP10 / RFU, CNEP1R1 / Fold change vs veh, CNEP1R1 / RFU, BIVM-ERCC5 /// ERCC5 / Fold change vs veh, BIVM-ERCC5 /// ERCC5 / RFU, ILF3 / Fold change vs veh, ILF3 / RFU 11762660_at / Fold change /veh 11762660_at / RFU VCAN (11757783_s_at) / Fold change /veh VCAN (11757783_s_at) / RFU DDX43 (11728927_at) / Fold change /veh DDX43 (11728927_at) / RFU KRT8 (11758188_x_at) / Fold change /veh KRT8 (11758188_x_at) / RFU NKD1 (11759106_at) / Fold change /veh NKD1 (11759106_at) / RFU SRD5A1 (11742802_a_at) / Fold change /veh SRD5A1 (11742802_a_at) / RFU TPSAB1 /// TPSB2 (11721975_s_at) / Fold change /veh TPSAB1 /// TPSB2 (11721975_s_at) / RFU GSTM3 (11746129_a_at) / Fold change /veh GSTM3 (11746129_a_at) / RFU IL23R (11737362_x_at) / Fold change /veh IL23R (11737362_x_at) / RFU TMEM51 (11727254_a_at) / Fold change /veh TMEM51 (11727254_a_at) / RFU PIWIL2 (11732686_x_at) / Fold change /veh PIWIL2 (11732686_x_at) / RFU ORM1 (11744905_x_at) / Fold change /veh ORM1 (11744905_x_at) / RFU CCDC152 (11743942_at) / Fold change /veh CCDC152 (11743942_at) / RFU ECM1 (11717891_a_at) / Fold change /veh ECM1 (11717891_a_at) / RFU IL23R (11748794_a_at) / Fold change /veh IL23R (11748794_a_at) / RFU TNFAIP8L3 (11732012_x_at) / Fold change /veh TNFAIP8L3 (11732012_x_at) / RFU MBOAT4 (11741988_at) / Fold change /veh MBOAT4 (11741988_at) / RFU 11764193_at / Fold change /veh 11764193_at / RFU TMEM53 (11763286_at) / Fold change /veh TMEM53 (11763286_at) / RFU MAGEB2 (11727129_at) / Fold change /veh MAGEB2 (11727129_at) / RFU TMEM200A (11744735_a_at) / Fold change /veh TMEM200A (11744735_a_at) / RFU CCDC152 (11751479_a_at) / Fold change /veh CCDC152 (11751479_a_at) / RFU FAM211A (11726209_a_at) / Fold change /veh FAM211A (11726209_a_at) / RFU RGS16 (11746705_a_at) / Fold change /veh RGS16 (11746705_a_at) / RFU VCAN (11755009_s_at) / Fold change /veh VCAN (11755009_s_at) / RFU RHOB (11743442_s_at) / Fold change /veh RHOB (11743442_s_at) / RFU RGS16 (11720943_a_at) / Fold change /veh RGS16 (11720943_a_at) / RFU RGS16 (11720944_at) / Fold change /veh RGS16 (11720944_at) / RFU, VPS4B / Fold change vs veh, VPS4B / RFU, CREB1 / Fold change vs veh, CREB1 / RFU, DNAJC13 / Fold change vs veh, DNAJC13 / RFU, GNAQ / Fold change vs veh, GNAQ / RFU, CDK5R1 / Fold change vs veh, CDK5R1 / RFU, ZRANB3 / Fold change vs veh, ZRANB3 / RFU, CUL4A / Fold change vs veh, CUL4A / RFU, CCNY / Fold change vs veh, CCNY / RFU, UFL1 / Fold change vs veh, UFL1 / RFU, COG3 / Fold change vs veh, COG3 / RFU, DIAPH2 / Fold change vs veh, DIAPH2 / RFU, SKA2 / Fold change vs veh, SKA2 / RFU, AFF3 / Fold change vs veh, AFF3 / RFU, LMF1 / Fold change vs veh, LMF1 / RFU, IPO11 / Fold change vs veh, IPO11 / RFU, DFFB / Fold change vs veh, DFFB / RFU, FOXP1 / Fold change vs veh, FOXP1 / RFU, CARD8 / Fold change vs veh, CARD8 / RFU, STRN3 / Fold change vs veh, STRN3 / RFU, ADK / Fold change vs veh, ADK / RFU, RASSF2 / Fold change vs veh, RASSF2 / RFU, WIPF1 / Fold change vs veh, WIPF1 / RFU, LARP1B / Fold change vs veh, LARP1B / RFU, RASA1 / Fold change vs veh, RASA1 / RFU, RB1 / Fold change vs veh, RB1 / RFU, PPFIA1 / Fold change vs veh, PPFIA1 / RFU, MAT2A / Fold change vs veh, MAT2A / RFU, CCT5 / Fold change vs veh, CCT5 / RFU, WDR92 / Fold change vs veh, WDR92 / RFU, CUX1 / Fold change vs veh, CUX1 / RFU, TTC7A / Fold change vs veh, TTC7A / RFU, TMEM135 / Fold change vs veh, TMEM135 / RFU, DEPTOR / Fold change vs veh, DEPTOR / RFU, CPM / Fold change vs veh, CPM / RFU, DNAJB6 / Fold change vs veh, DNAJB6 / RFU, CACNA2D3 / Fold change vs veh, CACNA2D3 / RFU, DTX4 / Fold change vs veh, DTX4 / RFU, TFCP2 / Fold change vs veh, TFCP2 / RFU, GMCL1 /// GMCL1P1 / Fold change vs veh, GMCL1 /// GMCL1P1 / RFU, AEBP2 / Fold change vs veh, AEBP2 / RFU, SNHG1 /// SNORD22 /// SNORD25 /// SNORD26 /// SNORD27 /// SNORD28 /// SNORD29 /// SNORD31 / Fold change vs veh, SNHG1 /// SNORD22 /// SNORD25 /// SNORD26 /// SNORD27 /// SNORD28 /// SNORD29 /// SNORD31 / Fold change (Aza/veh), C12orf56 (ProbeSet 11735607_a_at) / Fold change (ACY-1035/veh), C12orf56 (ProbeSet 11735607_a_at) / Fold change (Aza/veh), FGFR1OP (ProbeSet 11751329_s_at) / Fold change (ACY-1035/veh), FGFR1OP (ProbeSet 11751329_s_at) / Fold change (Aza/veh), VPS36 (ProbeSet 11739960_a_at) / Fold change (ACY-1035/veh), VPS36 (ProbeSet 11739960_a_at) / RFU SYPL1 (11715823_x_at) / Fold change /veh SYPL1 (11715823_x_at) / RFU IGFBP7 (11715501_s_at) / Fold change /veh IGFBP7 (11715501_s_at) / RFU REEP3 (11722064_at) / Fold change /veh REEP3 (11722064_at) / RFU IGLL1 (11728026_x_at) / Fold change /veh IGLL1 (11728026_x_at): dose or concentration left out as unconfirmed
Conditions: ProbeSet 11726703_a_at; LIST B

Compound: Nc1ccc(-c2cccs2)cc1NC(=O)c1ccc2c(c1)cc(C1CC1)n2CCN1CCOCC1 [ACY-1035]
- RFU, BCL10: 67.93 RFU

Source: article PMC5218480 (PLoS ONE, 2017)
